Data published in patent US20230034660A1, “PEPTIDES THAT ENHANCE NMDA RECEPTOR FUNCTION AND USE THEREOF” (University of Pittsburgh - Of the Commonwealth System of …, priority 2019, published 2023).

System: AMPAR
Test: AMPAR EPSCs in DCN cartwheel cells in brain slices, ZX1 potentiation
Assay type: cell-based, mice
Conditions: slices treated with peptide 3 μM; ZX1 100 μM; −70 mV
Procedure: Male and female mice (postpartum days 18-28) were anesthetized with isoflurane and sacrificed. Brains were rapidly dissected and sectioned into 210 μm thick coronal slices containing dorsal cochlear nucleus (DCN) on a vibratome (Leica, VT1000S). Slices were incubated in ACSF containing 130 mM NaCl, 3 mM KCl, 2.4 mM CaCl2, 1.3 mM MgCl2, 20 mM NaHCO3, 3 mM HEPES, and 10 mM glucose, saturated with 95% O2/5% CO2 (vol/vol), pH ˜7.3, ˜300 mOsm at 35° C. for 1 hour before being moved to room temperature. During preparation, ACSF was treated with Chelex 100 resin to remove any contaminating zinc. After applying Chelex to the ACSF, high-purity calcium and magnesium salts were added (99.995% purity). All plastic and glassware were washed with 5% high-purity nitric acid.
For brain slice recordings, whole-cell recordings of NMDAR EPSCs in slice DCN cartwheel cells were obtained with micropipettes (3-6 MΩ) containing 128 mM Cs(CH3O3S), 4 mM MgCl2·6H2O, 4 mM Na2ATP, 10 mM HEPES, 0.3 mM Tris-GTP, 10 mM Tris-phosphocreatine, 1 mM CsEGTA, 1 mM, QX-314, 3 mM sodium ascorbate, pH=˜7.2, 300 mOsm. […] NMDAR EPSCs were recorded in voltage clamp mode, at a holding potential of +40 mV, in the presence of DNQX (20 μM, AMPA and kainate receptor antagonist), SR95531. […] AMPA EPSCs were recorded in voltage clamp mode at a holding potential of −70 mV in the presence of SR9551. […]

Sequence	ZX1 potentiation of AMPAR EPSCs
NDSYLRSSL [Peptide N2AZ]	29.3±6.70%
SNLSDSYDR [scN2AZ, reference compound]	30.3±10.24%
